Like-named read-outs stand apart in the source and are kept apart here.

The results in this text go back to patent publication US10590113B2, “6-hydroxy-4-oxo-1,4-dihydropyrimidine-5-carboxamides as APJ agonists” (priority 2016, dated 2020).

For the test, the target named is T1, human APJ receptor (Homo sapiens, UniProt P35414).
T1 construct: expressed in transfected cells; host or cells: HEK293
T1 sequence (P35414 1-380): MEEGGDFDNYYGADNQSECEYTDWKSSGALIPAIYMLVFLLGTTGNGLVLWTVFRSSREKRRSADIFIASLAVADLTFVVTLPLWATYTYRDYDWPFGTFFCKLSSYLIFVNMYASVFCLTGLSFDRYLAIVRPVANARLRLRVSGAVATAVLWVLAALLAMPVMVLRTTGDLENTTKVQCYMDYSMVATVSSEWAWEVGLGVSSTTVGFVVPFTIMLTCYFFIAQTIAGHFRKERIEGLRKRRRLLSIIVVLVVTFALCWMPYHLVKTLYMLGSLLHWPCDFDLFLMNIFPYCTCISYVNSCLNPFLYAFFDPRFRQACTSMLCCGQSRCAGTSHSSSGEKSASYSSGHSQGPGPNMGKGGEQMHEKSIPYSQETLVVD
Nature of the test: Intracellular cAMP Accumulation Assay (APJ hcAMP, HTRF). In kind it is cell-based. As for the experimental part: Intracellular cAMP Accumulation Assay
HEK293 cells stably expressing human APJ receptor were used to assess the activity of compounds. Cultured cells were detached and resuspended in the cAMP
Homogeneous Time-Resolved Fluorescence (HTRF) assay buffer (Cisbio cat; #62AM4PEJ). The assay was performed in 384-well assay plates (Perkin-Elmer; cat #6008289) according to assay protocol provided by the manufacturer. Serial dilutions of a compound together with assay buffer containing […] IBMX and 2 μM forskolin were added to each well containing 5,000 cells and incubated for 30 minutes at room temperature. Subsequently, cAMP D2 reagent was added in the lysis buffer followed by the EuK antibody (Cisbio; cat #62AM4PEJ) and incubated for 60 min. The fluorescence emission ratio was measured using fluorometer. The intracellular cAMP concentrations (compound-stimulated inhibition of forskolin-mediated cAMP production) were calculated by extrapolation from a standard curve using known cAMP concentrations. The EC50 values were obtained by fitting the data to a sigmoidal concentration-response curve with variable slope.
The EC50 value of each compound is presented at the end of the example description.
The biological activity of the exemplified compounds of this invention determined by the assay described above is shown at the end of each example.
Background: TR-FRET usually uses a lanthanide donor and a delayed reading to cut background.

Where [1] appears, read: human APJ, intracellular cAMP accumulation, read-out: hAPJ cAMP EC50 Potency range.
Setting [2] is: read-out: hAPJ cAMP EC50 Potency range, human APJ, intracellular cAMP accumulation.

By EC50 is commonly meant the midpoint of the concentration-response curve. In the case of `CCOCc1nc(=O)c(C(=O)N2CCC(c3ccccn3)C2)c(O)n1-c1c(OC)cccc1OC` (single isomer, unassigned) [Example 55, 1-(2,6-dimethoxyphenyl)-2-(ethoxymethyl)-6-hydroxy-5-[3-(pyridin-2-yl)pyrrolidine-1-carbonyl]-1,4-dihydropyrimidin-4-one], the EC50 under setting [1] fell in the range of 0.01 to 10 nM.

Regarding `CCOCc1nc(=O)c(C(=O)N2CCC(c3ccc(F)cc3)C2)c(O)n1-c1c(OC)cccc1OC` (single isomer, unassigned) [Example 57, 1-(2,6-dimethoxyphenyl)-2-(ethoxymethyl)-5-[3-(4-fluorophenyl)pyrrolidine-1-carbonyl]-6-hydroxy-1,4-dihydropyrimidin-4-one], the EC50 under setting [1] was 0.01 to 10 nM.

In the case of `CCCCc1nc(=O)c(C(=O)N2CCC(c3ccccn3)C2)c(O)n1-c1c(OC)cccc1OC` (single isomer, unassigned) [Example 68, 2-butyl-1-(2,6-dimethoxyphenyl)-6-hydroxy-5-[3-(pyridin-2-yl)pyrrolidine-1-carbonyl]-1,4-dihydropyrimidin-4-one], the EC50 was 0.01 to 10 nM.

`CCCCc1nc(=O)c(C(=O)N2CCC(c3ccccn3)C2)c(O)n1-c1c(OC)cccc1OC` (single isomer, unassigned) [Example 70, 2-butyl-1-(2,6-dimethoxyphenyl)-6-hydroxy-5-[3-(pyridin-2-yl)pyrrolidine-1-carbonyl]-1,4-dihydropyrimidin-4-one]: under setting [2], the EC50 lay within 0.01 to 10 nM.

Regarding `CCCCc1nc(=O)c(C(=O)N2CCC(c3cccnc3)C2)c(O)n1-c1c(OC)cccc1OC` (single isomer, unassigned) [Example 75, 2-butyl-1-(2,6-dimethoxyphenyl)-6-hydroxy-5-[3-(pyridin-3-yl)pyrrolidine-1-carbonyl]-1,4-dihydropyrimidin-4-one], the EC50 fell in the range of 0.01 to 10 nM.

On to `CCCCc1nc(=O)c(C(=O)N2CCC(c3cccnc3)C2)c(O)n1-c1c(OC)cccc1OC` (single isomer, unassigned) [Example 76, 2-butyl-1-(2,6-dimethoxyphenyl)-6-hydroxy-5-[3-(pyridin-3-yl)pyrrolidine-1-carbonyl]-1,4-dihydropyrimidin-4-one], for which the EC50 under setting [2] was in the range of 0.01 to 10 nM.

Regarding `CCCCc1nc(=O)c(C(=O)N2CCC(c3ccc(F)cc3)C2)c(O)n1-c1c(OC)cccc1OC` (single isomer, unassigned) [Example 77, 2-butyl-1-(2,6-dimethoxyphenyl)-5-[3-(4-fluorophenyl)pyrrolidine-1-carbonyl]-6-hydroxy-1,4-dihydropyrimidin-4-one], under setting [1], the EC50 was in the range of 0.01 to 10 nM.

With `CCCCc1nc(=O)c(C(=O)N2CCC(c3cccc(F)c3)C2)c(O)n1-c1c(OC)cccc1OC` (single isomer, unassigned) [Example 78, 2-butyl-1-(2,6-dimethoxyphenyl)-5-[3-(3-fluorophenyl)pyrrolidine-1-carbonyl]-6-hydroxy-1,4-dihydropyrimidin-4-one], the EC50 under setting [1] lay in the range of 0.01 to 10 nM.

Regarding `CCCCc1nc(=O)c(C(=O)N2CCC(c3ccc(F)cc3)C2)c(O)n1-c1c(OC)cccc1OC` (single isomer, unassigned) [Example 79, 2-butyl-1-(2,6-dimethoxyphenyl)-5-[3-(4-fluorophenyl)pyrrolidine-1-carbonyl]-6-hydroxy-1,4-dihydropyrimidin-4-one], under setting [1], the EC50 lay within 0.01 to 10 nM.

Consider `CCCCc1nc(=O)c(C(=O)N2CCC(c3cccc(F)c3)C2)c(O)n1-c1c(OC)cccc1OC` (single isomer, unassigned) [Example 80, 2-butyl-1-(2,6-dimethoxyphenyl)-5-[3-(3-fluorophenyl)pyrrolidine-1-carbonyl]-6-hydroxy-1,4-dihydropyrimidin-4-one], for which the EC50 under setting [1] was in the range of 0.01 to 10 nM.

Take `CCOCc1nc(=O)c(C(=O)N2CCC(c3ccc(F)cc3)C2)c(O)n1-c1c(OC)cccc1OC` (single isomer, unassigned) [Example 81, 1-(2,6-dimethoxyphenyl)-2-(ethoxymethyl)-5-[3-(4-fluorophenyl)pyrrolidine-1-carbonyl]-6-hydroxy-1,4-dihydropyrimidin-4-one]: the EC50 under setting [1] lay within 0.01 to 10 nM.

For `CCOCc1nc(=O)c(C(=O)N2CCC(c3cccnc3)C2)c(O)n1-c1c(OC)cccc1OC` (single isomer, unassigned) [Example 82, 1-(2,6-dimethoxyphenyl)-2-(ethoxymethyl)-6-hydroxy-5-[3-(pyridin-3-yl)pyrrolidine-1-carbonyl]-1,4-dihydropyrimidin-4-one], under setting [1], the EC50 fell in the range of 0.01 to 10 nM.

With `CCOCc1nc(=O)c(C(=O)N2CCC(c3cccc(F)c3)C2)c(O)n1-c1c(OC)cccc1OC` (single isomer, unassigned) [Example 83, 1-(2,6-dimethoxyphenyl)-2-(ethoxymethyl)-5-[3-(3-fluorophenyl)pyrrolidine-1-carbonyl]-6-hydroxy-1,4-dihydropyrimidin-4-one], the EC50 under setting [1] lay in the range of 0.01 to 10 nM.

`CCOCc1nc(=O)c(C(=O)N2CCC(c3cccc(F)c3)C2)c(O)n1-c1c(OC)cccc1OC` (single isomer, unassigned) [Example 84, 1-(2,6-dimethoxyphenyl)-2-(ethoxymethyl)-5-[3-(3-fluorophenyl)pyrrolidine-1-carbonyl]-6-hydroxy-1,4-dihydropyrimidin-4-one]: the EC50 under setting [1] lay within 0.01 to 10 nM.

`CCOCc1nc(=O)c(C(=O)N2CCC(c3cccnc3)C2)c(O)n1-c1c(OC)cccc1OC` (single isomer, unassigned) [Example 85, 1-(2,6-dimethoxyphenyl)-2-(ethoxymethyl)-6-hydroxy-5-[3-(pyridin-3-yl)pyrrolidine-1-carbonyl]-1,4-dihydropyrimidin-4-one]: the EC50 under setting [1] fell in the range of 0.01 to 10 nM.

For `COc1cccc(OC)c1-n1c(COC(C)C)nc(=O)c(C(=O)N2CCC(c3ccccc3Cl)C2)c1O` (single isomer, unassigned) [Example 92, 5-[3-(2-chlorophenyl)pyrrolidine-1-carbonyl]-1-(2,6-dimethoxyphenyl)-6-hydroxy-2-[(propan-2-yloxy)methyl]-1,4-dihydropyrimidin-4-one], the EC50 under setting [1] was in the range of 0.01 to 10 nM.

For the compound `COc1cccc(OC)c1-n1c(COC(C)C)nc(=O)c(C(=O)N2CCC(c3ccccc3F)C2)c1O` (single isomer, unassigned) [Example 93, 1-(2,6-dimethoxyphenyl)-5-[3-(2-fluorophenyl)pyrrolidine-1-carbonyl]-6-hydroxy-2-[(propan-2-yloxy)methyl]-1,4-dihydropyrimidin-4-one], under setting [1], the EC50 fell in the range of 0.01 to 10 nM.

In the case of `COc1cccc(OC)c1-n1c(COC(C)C)nc(=O)c(C(=O)N2CCC(c3ccc(F)cc3)C2)c1O` (single isomer, unassigned) [Example 94, 1-(2,6-dimethoxyphenyl)-5-[3-(4-fluorophenyl)pyrrolidine-1-carbonyl]-6-hydroxy-2-[(propan-2-yloxy)methyl]-1,4-dihydropyrimidin-4-one], the EC50 under setting [1] lay within 0.01 to 10 nM.

Turning to `COc1cccc(OC)c1-n1c(COC(C)C)nc(=O)c(C(=O)N2CCC(c3cccc(F)c3)C2)c1O` (single isomer, unassigned) [Example 95, 1-(2,6-dimethoxyphenyl)-5-[3-(3-fluorophenyl)pyrrolidine-1-carbonyl]-6-hydroxy-2-[(propan-2-yloxy)methyl]-1,4-dihydropyrimidin-4-one], the half-maximal effective concentration (EC50) under setting [1] fell in the range of 0.01 to 10 nM.

Consider `COc1cccc(OC)c1-n1c(COC(C)C)nc(=O)c(C(=O)N2CCC(c3cccc(F)c3)C2)c1O` (single isomer, unassigned) [Example 97, 1-(2,6-dimethoxyphenyl)-5-[3-(3-fluorophenyl)pyrrolidine-1-carbonyl]-6-hydroxy-2-[(propan-2-yloxy)methyl]-1,4-dihydropyrimidin-4-one], for which, under setting [1], the EC50 was 0.01 to 10 nM.

Turning to `COc1cccc(OC)c1-n1c(COC(C)C)nc(=O)c(C(=O)N2CCC(c3ccccc3C)C2)c1O` (single isomer, unassigned) [Example 98, 1-(2,6-dimethoxyphenyl)-6-hydroxy-5-[3-(2-methylphenyl)pyrrolidine-1-carbonyl]-2-[(propan-2-yloxy)methyl]-1,4-dihydropyrimidin-4-one], the EC50 under setting [1] lay within 0.01 to 10 nM.

As for `COc1cccc(OC)c1-n1c(COC(C)C)nc(=O)c(C(=O)N2CCC(c3ccccc3C(F)(F)F)C2)c1O` (single isomer, unassigned) [Example 99, 1-(2,6-dimethoxyphenyl)-6-hydroxy-2-[(propan-2-yloxy)methyl]-5-{3-[2-(trifluoromethyl)phenyl]pyrrolidine-l-carbonyl}-1,4-dihydropyrimidin-4-one], the EC50 under setting [1] lay in the range of 0.01 to 10 nM.

On to `COc1cccc(OC)c1-n1c(COC2CC2)nc(=O)c(C(=O)N2CCC(c3ccc(F)cc3)C2)c1O` (single isomer, unassigned) [Example 100, 2-(cyclopropoxymethyl)-1-(2,6-dimethoxyphenyl)-5-[3-(4-fluorophenyl)pyrrolidine-1-carbonyl]-6-hydroxy-1,4-dihydropyrimidin-4-one], for which, under setting [1], the EC50 lay within 0.01 to 10 nM.
